The values below come from ChEMBL document CHEMBL1201862, “PubChem BioAssay data set” (2004).

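A five-concentration, 48-hour dose response in 96-well plates underlies each endpoint, interpolated linearly between surrounding concentrations. GI50 is the concentration that inhibits growth by half.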 Active and inactive are the calls of the source. Cut-off read from the data, not from the text of the source: active = GI50 up to about 1.1 µM and inactive = higher.

Some test systems named below: A498; COLO 205; HCT-15; HL-60; HOP-92; Hs-578T; MCF7; MDA-MB-231; MOLT-4; NCI-H460; NCI-H522; OVCAR-3; RPMI-8226; RXF 393; SK-MEL-2; SK-MEL-5; SW-620; U-251; UACC-62.
What all share (experiment): NCI-60 cell line screen, 48 h

As for `CN(C)Cc1c[nH]c2ncnc(O)c12`, the GI50 was > 100 µM (inactive) with A498; 35.8 µM (inactive) with COLO 205; 35.5 µM in the assay with HCT-15; 19.7 µM (inactive) in the assay on HL-60; 38.9 µM (inactive) in the assay on HOP-92; > 100 µM (inactive) in the assay on Hs-578T. Besides, the GI50 in the assay with MCF7 is 24.7 µM (inactive); in the assay with MDA-MB-231 it was 72.4 µM (inactive); with MOLT-4 it was 7.8 µM (inactive); in the assay on NCI-H460, 26.2 µM (inactive); with NCI-H522, > 100 µM (inactive); with OVCAR-3, > 100 µM (inactive). Moreover, the GI50 in the assay with RPMI-8226 was 20.6 µM (inactive); with RXF 393 it was 18.6 µM (inactive); with SK-MEL-2, 43.6 µM (inactive); in the assay on SK-MEL-5, 53.7 µM (inactive); with SW-620 it was 27.2 µM (inactive); with U-251 it was 51.6 µM (inactive). Further, the GI50 with UACC-62 was 20.9 µM (inactive).

With `CN1CCc2ccccc2C1Cc1ccccc1NC(=O)c1sc2ccccc2c1Cl` (stereo not given), the GI50 with A498 was > 100 µM (inactive); with COLO 205, > 100 µM (inactive); in the assay on HCT-15, above 100 µM; in the assay on HL-60, 42.3 µM (inactive); in the assay with HOP-92 it was > 100 µM (inactive); in the assay on Hs-578T it was > 100 µM (inactive). The GI50 in the assay with MCF7, with MDA-MB-231, with MOLT-4, with NCI-H460, in the assay with NCI-H522 and in the assay on OVCAR-3 was > 100 µM (inactive) each time. The GI50 in the assay with RPMI-8226, with RXF 393, with SK-MEL-2, with SK-MEL-5, in the assay with SW-620 and in the assay on U-251 was > 100 µM (inactive) throughout. In addition, the GI50 in the assay on UACC-62 was > 100 µM (inactive).

As to `CN(CCNC(=O)c1cn(C)c2c1ccc1cc(Cl)ccc12)CCNC(=O)c1cn(C)c2c1ccc1cc(Cl)ccc12`, the GI50 in the assay on A498 was 3.71 µM (inactive); with COLO 205, 1.2 µM (inactive); in the assay on HCT-15 it was 1.78 µM; with HL-60, 3.26 µM (inactive); in the assay on HOP-92, 5.85 µM (inactive); in the assay with Hs-578T, 1.94 µM (inactive). Moreover, the GI50 was 1.86 µM (inactive) in the assay on MCF7; 6.62 µM (inactive) in the assay on MDA-MB-231; 5.01 µM (inactive) with MOLT-4; 3.24 µM (inactive) in the assay on NCI-H460; 1.85 µM (inactive) in the assay with NCI-H522; 2.4 µM (inactive) in the assay on OVCAR-3. Also, the GI50 in the assay with RXF 393 is 1.57 µM (inactive); with SK-MEL-2, 6.92 µM (inactive); with SK-MEL-5, 10.9 µM (inactive); in the assay on SW-620, 5.28 µM (inactive); in the assay on U-251, 7.59 µM (inactive); in the assay with UACC-62, 5.97 µM (inactive).

As for `O=C1C(/N=N/c2ccc(-c3nc4ccccc4[nH]3)cc2)NC(=S)N1c1ccccc1` (stereo not given), the GI50 with A498 is > 100 µM (inactive); in the assay on COLO 205 it was 73.6 µM (inactive); with HCT-15 it was 18.2 µM; in the assay on HL-60 it was > 100 µM (inactive); in the assay with HOP-92, > 100 µM (inactive); in the assay on Hs-578T it was > 100 µM (inactive). The GI50 with MCF7 was 10.5 µM (inactive); with MDA-MB-231, > 100 µM (inactive); in the assay on MOLT-4, 18.9 µM (inactive); in the assay on NCI-H460 it was 56.9 µM (inactive); with NCI-H522 it was 48.6 µM (inactive); with OVCAR-3, > 100 µM (inactive). The GI50 with RPMI-8226 was 22.1 µM (inactive); with RXF 393 it was 13.4 µM (inactive); in the assay with SK-MEL-2, > 100 µM (inactive); in the assay on SK-MEL-5 it was > 100 µM (inactive); in the assay with SW-620 it was 28.1 µM (inactive); in the assay with U-251 it was 33 µM (inactive). The GI50 with UACC-62 is > 100 µM (inactive).

As to `CCc1c[n+]([O-])c(C)cc1[N+](=O)[O-]`, the GI50 is > 100 µM (inactive) with A498; 15.6 µM (inactive) with COLO 205; 18.8 µM with HCT-15; > 100 µM (inactive) in the assay with HL-60; 35.8 µM (inactive) with HOP-92; > 100 µM (inactive) with Hs-578T. Also, the GI50 with MCF7 is 90.8 µM (inactive); in the assay on MDA-MB-231, 22.8 µM (inactive); in the assay on MOLT-4 it was > 100 µM (inactive); with NCI-H460, 20.7 µM (inactive); with NCI-H522, 55.3 µM (inactive); in the assay on OVCAR-3, > 100 µM (inactive). Besides, the GI50 is 33.5 µM (inactive) in the assay on RPMI-8226; 22.4 µM (inactive) in the assay on RXF 393; 21 µM (inactive) in the assay on SK-MEL-2; > 100 µM (inactive) in the assay on SK-MEL-5; 33.3 µM (inactive) in the assay with SW-620; 99.5 µM (inactive) with U-251. Besides, the GI50 in the assay with UACC-62 was 49.9 µM (inactive).

Regarding `O=C(Cc1nc2ccc(C(=O)c3ccccc3)cc2nc1O)C(=O)Nc1ccc(Br)cc1`, the GI50 in the assay on A498 is > 100 µM (inactive); with HCT-15 it was 54.3 µM; in the assay on HL-60 it was 69.7 µM (inactive); with HOP-92 it was 71 µM (inactive); in the assay on Hs-578T, 53 µM (inactive); in the assay with MCF7 it was > 100 µM (inactive). The GI50 with MDA-MB-231 is > 100 µM (inactive); in the assay on NCI-H460, > 100 µM (inactive); in the assay with NCI-H522, 48.9 µM (inactive); in the assay with OVCAR-3, > 100 µM (inactive); in the assay with RPMI-8226, 99.3 µM (inactive); in the assay with RXF 393 it was > 100 µM (inactive). Moreover, the GI50 with SK-MEL-2, in the assay on SK-MEL-5, in the assay with SW-620, in the assay with U-251 and in the assay with UACC-62 was > 100 µM (inactive) in each case.

With `Oc1ccc(SCc2ccc(NCc3ccccc3)cc2)cc1`, the GI50 in the assay on A498 is 20.1 µM (inactive); with COLO 205, 35.4 µM (inactive); in the assay on HCT-15, 8.97 µM; with HL-60 it was 14.6 µM (inactive); with HOP-92, 43.4 µM (inactive); with Hs-578T, 53 µM (inactive). The GI50 is 29.8 µM (inactive) with MCF7; 39.9 µM (inactive) with MDA-MB-231; 11.4 µM (inactive) in the assay on MOLT-4; 31 µM (inactive) with NCI-H460; 20 µM (inactive) with NCI-H522; 30 µM (inactive) in the assay with OVCAR-3. Further, the GI50 was 19.9 µM (inactive) in the assay with RXF 393; 21.7 µM (inactive) with SK-MEL-2; 20.7 µM (inactive) with SK-MEL-5; 36.4 µM (inactive) with SW-620; 24.4 µM (inactive) in the assay on U-251; 23.4 µM (inactive) with UACC-62.

In the case of `NNc1nc2ccccc2c(=O)n1NC(=O)C(=O)Nc1cccc(C(F)(F)F)c1`, the GI50 with A498 was > 100 µM (inactive); with HCT-15, above 100 µM; in the assay on HL-60, > 100 µM (inactive); in the assay with HOP-92 it was > 100 µM (inactive); in the assay on Hs-578T it was > 100 µM (inactive); in the assay with MCF7, > 100 µM (inactive). The GI50 in the assay on MDA-MB-231, in the assay with MOLT-4, with NCI-H460, with NCI-H522, with OVCAR-3 and in the assay with RPMI-8226 was > 100 µM (inactive) each time. Moreover, the GI50 in the assay on RXF 393, with SK-MEL-2, with SK-MEL-5, in the assay with SW-620, in the assay on U-251 and in the assay on UACC-62 was > 100 µM (inactive) in each case.

With `Clc1ccc2c(NCCNC3CCCCC3)ccnc2c1`, the GI50 with A498 is 2.11 µM (inactive); with COLO 205 it was 1.36 µM (inactive); in the assay on HCT-15, 5.4 µM; in the assay on HL-60 it was 2.42 µM (inactive); in the assay on HOP-92, 5.56 µM (inactive); in the assay on Hs-578T, 2.54 µM (inactive). In addition, the GI50 in the assay with MCF7 is 4.53 µM (inactive); with MDA-MB-231, 9.62 µM (inactive); in the assay with MOLT-4 it was 3.48 µM (inactive); with NCI-H522, 2.67 µM (inactive); in the assay with OVCAR-3 it was 15 µM (inactive); with RPMI-8226, 3.44 µM (inactive). In addition, the GI50 is 8.95 µM (inactive) in the assay with RXF 393; 3.22 µM (inactive) with SK-MEL-2; 1.62 µM (inactive) in the assay with SK-MEL-5; 12.2 µM (inactive) with SW-620; 5.5 µM (inactive) with U-251; 4.28 µM (inactive) with UACC-62.

Regarding `CN(C)/C=N/CCN1CCOCC1`, the GI50 in the assay on A498 is > 100 µM (inactive); with COLO 205, > 100 µM (inactive); in the assay on HCT-15, above 100 µM; in the assay with HL-60 it was > 100 µM (inactive); with HOP-92, > 100 µM (inactive); in the assay on Hs-578T it was > 100 µM (inactive). Moreover, the GI50 with MCF7, in the assay on MDA-MB-231, in the assay with MOLT-4, with NCI-H522, with OVCAR-3 and with RPMI-8226 was > 100 µM (inactive) in each case. Further, the GI50 in the assay on RXF 393, in the assay with SK-MEL-2, with SK-MEL-5, in the assay with U-251 and in the assay on UACC-62 was > 100 µM (inactive) in each case.

Regarding `O=C(O)c1c2c(cc3c1CC1(Cc4ccccc4C1)C3)CCC2`, the GI50 is > 100 µM (inactive) with A498; 57.7 µM (inactive) with COLO 205; 82.4 µM in the assay with HCT-15; 41.4 µM (inactive) in the assay on HL-60; 14.9 µM (inactive) with HOP-92; 63.8 µM (inactive) with Hs-578T. Also, the GI50 was 96.2 µM (inactive) in the assay with MCF7; 95.7 µM (inactive) with MDA-MB-231; 82.8 µM (inactive) in the assay on MOLT-4; 25.9 µM (inactive) with NCI-H460; 49.1 µM (inactive) in the assay on NCI-H522; 68.1 µM (inactive) in the assay on OVCAR-3. Besides, the GI50 with RPMI-8226 is 33.9 µM (inactive); in the assay with RXF 393, > 100 µM (inactive); with SK-MEL-5, 59.7 µM (inactive); in the assay with SW-620, > 100 µM (inactive); in the assay with U-251, 42.6 µM (inactive); with UACC-62, > 100 µM (inactive).
